From ChEMBL document CHEMBL5465560, “Selectivity Literature for EUbOPEN Chemogenomic Library” (2024)

What was measured:
[1] = system: Epidermal growth factor receptor (Homo sapiens), P00533 [UNDEFINED MUTATION]; assay: Selectivity interaction (KinomeScan (DiscoverX)) EUB0001049a EGFR; settings: at 1 µM
[2] = target: Mitogen-activated protein kinase 14 (Homo sapiens, UniProt Q16539); assay: Selectivity interaction (Millipore kinase profiler) EUB0000124b MAPK14; settings: at 10 µM
[3] = target: Serine/threonine-protein kinase PLK3 (Homo sapiens, UniProt Q9H4B4); assay: Selectivity interaction (KinomeScan (DiscoverX)) EUB0000229b PLK3; settings: at 10 µM
[4] = target: Serine/threonine-protein kinase MRCK alpha (Homo sapiens) (UniProt Q5VT25); assay: Selectivity interaction (KinomeScan (DiscoverX)) EUB0001079a CDC42BPA; settings: at 1 µM
Serine/threonine-protein kinase MRCK alpha (Homo sapiens), sequence (Q5VT25 whole entry): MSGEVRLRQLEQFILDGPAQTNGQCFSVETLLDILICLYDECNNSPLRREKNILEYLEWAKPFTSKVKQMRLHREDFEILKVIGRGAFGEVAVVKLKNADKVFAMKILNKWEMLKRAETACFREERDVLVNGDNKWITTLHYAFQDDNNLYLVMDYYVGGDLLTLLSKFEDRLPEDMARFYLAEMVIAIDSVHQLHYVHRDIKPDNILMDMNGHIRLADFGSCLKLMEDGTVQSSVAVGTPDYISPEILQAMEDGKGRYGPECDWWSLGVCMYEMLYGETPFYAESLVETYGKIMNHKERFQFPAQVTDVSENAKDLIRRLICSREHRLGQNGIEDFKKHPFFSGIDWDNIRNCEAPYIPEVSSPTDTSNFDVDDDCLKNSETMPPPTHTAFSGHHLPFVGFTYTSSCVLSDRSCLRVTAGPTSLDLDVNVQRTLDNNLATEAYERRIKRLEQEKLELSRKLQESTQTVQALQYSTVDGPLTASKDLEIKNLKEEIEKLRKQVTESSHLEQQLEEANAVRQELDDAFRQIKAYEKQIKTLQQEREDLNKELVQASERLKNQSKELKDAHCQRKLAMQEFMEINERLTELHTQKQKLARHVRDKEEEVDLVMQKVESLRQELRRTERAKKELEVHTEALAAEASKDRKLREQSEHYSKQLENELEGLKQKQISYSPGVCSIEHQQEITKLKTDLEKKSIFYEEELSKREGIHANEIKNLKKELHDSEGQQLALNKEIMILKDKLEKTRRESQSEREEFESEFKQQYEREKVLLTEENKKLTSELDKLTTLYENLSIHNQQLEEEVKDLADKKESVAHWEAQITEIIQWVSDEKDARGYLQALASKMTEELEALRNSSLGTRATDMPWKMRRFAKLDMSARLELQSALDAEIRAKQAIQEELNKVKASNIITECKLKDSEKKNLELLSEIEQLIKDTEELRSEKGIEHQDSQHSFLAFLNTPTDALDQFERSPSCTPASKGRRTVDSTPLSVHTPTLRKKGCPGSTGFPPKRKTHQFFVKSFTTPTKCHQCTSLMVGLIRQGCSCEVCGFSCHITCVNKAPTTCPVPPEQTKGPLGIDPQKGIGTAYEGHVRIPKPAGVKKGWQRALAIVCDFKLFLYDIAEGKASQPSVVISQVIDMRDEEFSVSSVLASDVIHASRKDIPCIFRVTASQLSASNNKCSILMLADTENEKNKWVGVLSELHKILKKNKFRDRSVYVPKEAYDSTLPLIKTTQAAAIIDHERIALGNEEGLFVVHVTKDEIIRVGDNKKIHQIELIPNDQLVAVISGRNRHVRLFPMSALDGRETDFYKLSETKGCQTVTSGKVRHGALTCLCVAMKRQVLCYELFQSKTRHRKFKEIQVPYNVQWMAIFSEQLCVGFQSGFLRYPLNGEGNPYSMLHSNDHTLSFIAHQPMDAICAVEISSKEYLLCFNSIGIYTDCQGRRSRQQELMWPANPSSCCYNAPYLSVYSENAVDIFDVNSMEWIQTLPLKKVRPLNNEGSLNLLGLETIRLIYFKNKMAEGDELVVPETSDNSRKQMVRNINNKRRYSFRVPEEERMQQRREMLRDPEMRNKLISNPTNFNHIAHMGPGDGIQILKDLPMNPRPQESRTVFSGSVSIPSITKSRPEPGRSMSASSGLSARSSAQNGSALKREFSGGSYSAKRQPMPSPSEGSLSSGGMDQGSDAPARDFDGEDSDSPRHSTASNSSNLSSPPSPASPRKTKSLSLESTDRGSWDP

[5] = target: Histone-lysine N-methyltransferase KMT5C (Homo sapiens) (UniProt Q86Y97); assay: Selectivity interaction (Methyltransferase screen (Scintillation proximity assays)) EUB0000255b SUV420H2
Histone-lysine N-methyltransferase KMT5C (Homo sapiens), sequence (Q86Y97 whole entry, looked up): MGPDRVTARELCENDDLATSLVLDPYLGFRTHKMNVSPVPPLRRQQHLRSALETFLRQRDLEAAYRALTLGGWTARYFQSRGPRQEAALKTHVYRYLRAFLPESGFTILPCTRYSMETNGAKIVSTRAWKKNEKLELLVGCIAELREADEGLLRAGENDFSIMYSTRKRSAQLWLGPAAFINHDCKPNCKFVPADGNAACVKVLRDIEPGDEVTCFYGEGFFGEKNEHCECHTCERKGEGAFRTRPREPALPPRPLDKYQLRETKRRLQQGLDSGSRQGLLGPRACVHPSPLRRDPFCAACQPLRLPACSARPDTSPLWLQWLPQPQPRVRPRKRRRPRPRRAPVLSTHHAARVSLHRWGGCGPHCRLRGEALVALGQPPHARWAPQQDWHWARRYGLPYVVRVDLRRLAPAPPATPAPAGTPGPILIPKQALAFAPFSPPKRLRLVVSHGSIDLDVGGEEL

[6] = system: Epidermal growth factor receptor (Homo sapiens), P00533 [UNDEFINED MUTATION]; assay: Selectivity interaction (KinomeScan (DiscoverX)) EUB0000045b EGFR; settings: at 10 µM
[7] = target: 5'-AMP-activated protein kinase catalytic subunit alpha-1 (Homo sapiens, UniProt Q13131); assay: Selectivity interaction (ActivX KiNativ screen (ex vivo kinase selectivity in human PBMCs)) EUB0001619a PRKAA1; assay type: cell-based; settings: PBMC, at 1 µM
5'-AMP-activated protein kinase catalytic subunit alpha-1, sequence (Q13131 whole entry, looked up): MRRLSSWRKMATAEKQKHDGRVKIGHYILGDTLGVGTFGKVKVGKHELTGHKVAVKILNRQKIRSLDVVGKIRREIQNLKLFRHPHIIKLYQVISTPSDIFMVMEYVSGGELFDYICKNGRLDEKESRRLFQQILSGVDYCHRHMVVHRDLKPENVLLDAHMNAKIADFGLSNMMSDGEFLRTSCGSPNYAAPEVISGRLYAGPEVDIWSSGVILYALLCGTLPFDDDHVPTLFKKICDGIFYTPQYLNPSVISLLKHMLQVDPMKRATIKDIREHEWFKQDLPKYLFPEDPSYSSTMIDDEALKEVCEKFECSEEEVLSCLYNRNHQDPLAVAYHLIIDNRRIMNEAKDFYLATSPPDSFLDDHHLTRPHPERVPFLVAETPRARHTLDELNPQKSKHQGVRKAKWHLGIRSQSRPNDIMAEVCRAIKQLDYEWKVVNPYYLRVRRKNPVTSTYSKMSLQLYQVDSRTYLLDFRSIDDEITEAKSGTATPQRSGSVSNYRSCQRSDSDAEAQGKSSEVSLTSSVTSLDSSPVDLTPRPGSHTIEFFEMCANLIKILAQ

[8] = target: T1, Calcium/calmodulin-dependent protein kinase type IV (Homo sapiens) (UniProt Q16566); assay: Selectivity interaction (KinomeScan (DiscoverX)) EUB0000655a CAMK4; settings: at 10 µM
T1 sequence (whole entry): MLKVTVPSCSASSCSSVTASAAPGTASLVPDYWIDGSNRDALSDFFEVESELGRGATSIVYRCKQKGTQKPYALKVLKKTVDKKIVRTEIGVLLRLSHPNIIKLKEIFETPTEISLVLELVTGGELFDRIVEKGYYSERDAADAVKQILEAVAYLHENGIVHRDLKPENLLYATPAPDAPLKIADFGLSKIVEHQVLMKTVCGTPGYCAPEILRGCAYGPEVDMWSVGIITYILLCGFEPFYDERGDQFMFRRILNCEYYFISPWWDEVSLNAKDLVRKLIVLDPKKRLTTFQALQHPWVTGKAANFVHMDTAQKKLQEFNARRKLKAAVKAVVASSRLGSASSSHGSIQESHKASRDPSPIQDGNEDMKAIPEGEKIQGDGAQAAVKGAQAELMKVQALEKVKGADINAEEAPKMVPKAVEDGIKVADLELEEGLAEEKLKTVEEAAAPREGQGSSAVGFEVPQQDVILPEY

[9] = target: Tyrosine-protein kinase SYK (Homo sapiens, UniProt P43405); assay: Selectivity interaction (SelectScreen profiling (Invitrogen)) EUB0000607a SYK; settings: at 2 µM
[10] = target: Cyclin-dependent kinase 5 (Homo sapiens, UniProt Q00535); assay: Selectivity interaction (KinomeScan (DiscoverX)) EUB0000607a CDK5; settings: at 10 µM
Cyclin-dependent kinase 5, sequence (Q00535 whole entry, looked up): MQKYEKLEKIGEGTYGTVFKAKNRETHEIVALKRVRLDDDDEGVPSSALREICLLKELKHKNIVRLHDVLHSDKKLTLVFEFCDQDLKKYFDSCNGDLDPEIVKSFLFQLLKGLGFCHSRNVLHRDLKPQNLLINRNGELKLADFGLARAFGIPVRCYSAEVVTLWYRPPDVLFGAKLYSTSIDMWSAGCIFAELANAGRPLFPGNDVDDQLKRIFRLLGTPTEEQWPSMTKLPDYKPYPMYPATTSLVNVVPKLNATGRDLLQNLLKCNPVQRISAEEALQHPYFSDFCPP

[11] = target: T2, Mitogen-activated protein kinase kinase kinase 5 (Homo sapiens) (UniProt Q99683); assay: Selectivity interaction (KinomeScan (DiscoverX)) EUB0000607a MAP3K5; settings: at 10 µM
T2 sequence (whole entry): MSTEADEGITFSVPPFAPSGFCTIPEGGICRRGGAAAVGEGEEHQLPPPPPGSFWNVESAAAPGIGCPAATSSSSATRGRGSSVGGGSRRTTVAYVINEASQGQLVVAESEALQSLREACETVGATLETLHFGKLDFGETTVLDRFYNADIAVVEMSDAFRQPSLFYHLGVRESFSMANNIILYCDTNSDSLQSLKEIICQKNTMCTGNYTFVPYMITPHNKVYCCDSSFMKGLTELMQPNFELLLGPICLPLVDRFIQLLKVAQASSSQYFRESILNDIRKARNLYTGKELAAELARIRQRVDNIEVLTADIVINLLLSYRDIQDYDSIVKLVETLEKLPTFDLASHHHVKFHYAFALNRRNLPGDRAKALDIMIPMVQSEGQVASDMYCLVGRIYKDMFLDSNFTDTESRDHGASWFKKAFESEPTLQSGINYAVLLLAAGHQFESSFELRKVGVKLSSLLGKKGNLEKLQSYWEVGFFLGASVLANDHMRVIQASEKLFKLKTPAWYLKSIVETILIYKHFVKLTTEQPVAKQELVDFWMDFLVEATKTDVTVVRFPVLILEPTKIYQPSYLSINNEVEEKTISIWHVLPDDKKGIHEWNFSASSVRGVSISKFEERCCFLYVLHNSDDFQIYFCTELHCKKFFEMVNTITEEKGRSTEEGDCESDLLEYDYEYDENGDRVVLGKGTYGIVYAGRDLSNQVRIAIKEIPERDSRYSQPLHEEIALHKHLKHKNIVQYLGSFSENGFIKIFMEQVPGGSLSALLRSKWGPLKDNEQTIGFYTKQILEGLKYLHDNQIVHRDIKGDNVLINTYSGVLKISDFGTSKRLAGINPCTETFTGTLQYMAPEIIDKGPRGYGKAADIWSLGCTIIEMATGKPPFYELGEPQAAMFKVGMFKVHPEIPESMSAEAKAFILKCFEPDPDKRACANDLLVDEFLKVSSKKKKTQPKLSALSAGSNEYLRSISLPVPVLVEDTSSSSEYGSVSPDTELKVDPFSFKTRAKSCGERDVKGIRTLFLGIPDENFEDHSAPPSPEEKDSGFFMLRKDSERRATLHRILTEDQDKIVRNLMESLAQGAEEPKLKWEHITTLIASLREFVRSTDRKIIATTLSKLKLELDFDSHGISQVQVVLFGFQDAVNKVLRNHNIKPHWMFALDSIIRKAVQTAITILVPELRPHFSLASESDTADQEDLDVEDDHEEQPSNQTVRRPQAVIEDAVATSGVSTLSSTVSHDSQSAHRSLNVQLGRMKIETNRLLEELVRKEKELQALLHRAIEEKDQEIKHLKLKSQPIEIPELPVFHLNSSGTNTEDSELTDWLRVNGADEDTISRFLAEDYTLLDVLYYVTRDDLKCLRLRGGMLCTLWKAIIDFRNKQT

Epidermal growth factor receptor (Homo sapiens), P00533 [UNDEFINED MUTATION], sequence (P00533 whole entry, looked up, change not shown): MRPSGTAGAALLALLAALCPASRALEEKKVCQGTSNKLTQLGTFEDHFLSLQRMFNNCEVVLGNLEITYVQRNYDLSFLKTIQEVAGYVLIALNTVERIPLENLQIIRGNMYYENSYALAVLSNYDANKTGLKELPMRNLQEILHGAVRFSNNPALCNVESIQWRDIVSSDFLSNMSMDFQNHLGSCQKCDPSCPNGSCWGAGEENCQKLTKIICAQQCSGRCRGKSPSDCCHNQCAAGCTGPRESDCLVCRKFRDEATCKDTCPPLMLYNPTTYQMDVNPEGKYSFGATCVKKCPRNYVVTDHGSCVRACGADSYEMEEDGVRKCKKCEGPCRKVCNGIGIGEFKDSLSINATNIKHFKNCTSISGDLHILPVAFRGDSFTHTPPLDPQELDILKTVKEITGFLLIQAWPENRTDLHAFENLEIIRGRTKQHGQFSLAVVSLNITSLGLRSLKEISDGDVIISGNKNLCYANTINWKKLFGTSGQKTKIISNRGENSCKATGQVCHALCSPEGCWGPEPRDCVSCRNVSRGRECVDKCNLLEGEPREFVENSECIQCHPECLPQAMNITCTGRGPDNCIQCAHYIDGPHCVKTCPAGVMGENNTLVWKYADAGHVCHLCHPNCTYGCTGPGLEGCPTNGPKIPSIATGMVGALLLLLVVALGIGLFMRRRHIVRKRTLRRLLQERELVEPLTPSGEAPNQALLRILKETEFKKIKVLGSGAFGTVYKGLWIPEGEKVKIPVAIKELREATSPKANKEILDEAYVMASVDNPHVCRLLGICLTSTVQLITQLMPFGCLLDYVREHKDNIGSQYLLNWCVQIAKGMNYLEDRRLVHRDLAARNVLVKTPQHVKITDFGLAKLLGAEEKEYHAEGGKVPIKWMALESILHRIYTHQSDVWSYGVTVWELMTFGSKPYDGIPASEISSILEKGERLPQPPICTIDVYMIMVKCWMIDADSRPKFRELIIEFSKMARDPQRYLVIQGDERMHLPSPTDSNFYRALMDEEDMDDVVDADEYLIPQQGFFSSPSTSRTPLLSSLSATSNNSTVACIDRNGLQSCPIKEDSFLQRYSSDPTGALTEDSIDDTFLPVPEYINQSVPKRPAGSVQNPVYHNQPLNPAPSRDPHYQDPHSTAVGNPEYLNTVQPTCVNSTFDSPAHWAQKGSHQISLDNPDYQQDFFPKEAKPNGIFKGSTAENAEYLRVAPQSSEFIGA
Mitogen-activated protein kinase 14, sequence (Q16539 whole entry): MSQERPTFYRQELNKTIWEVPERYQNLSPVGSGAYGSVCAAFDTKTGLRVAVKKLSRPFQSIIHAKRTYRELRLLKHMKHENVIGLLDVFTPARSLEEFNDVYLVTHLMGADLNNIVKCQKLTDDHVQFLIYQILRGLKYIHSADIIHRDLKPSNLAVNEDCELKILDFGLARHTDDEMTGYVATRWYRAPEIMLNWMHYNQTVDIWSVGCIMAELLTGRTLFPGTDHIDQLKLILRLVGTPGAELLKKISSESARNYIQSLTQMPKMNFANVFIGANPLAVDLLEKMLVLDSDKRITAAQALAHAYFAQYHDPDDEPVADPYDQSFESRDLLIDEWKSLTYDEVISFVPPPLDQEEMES

COc1cc(Nc2nc(C)cc(-c3cnn4nc(OC)ccc34)n2)cc(C(F)(F)F)c1
% of control [1]: 83%

CC(=O)Nc1cccc(-n2c(=O)n(C3CC3)c(=O)c3c(Nc4ccc(I)cc4F)n(C)c(=O)c(C)c32)c1
% of control [2]: 84%

COc1cc(N(C)c2ccnc3ccc(C(F)(F)F)cc23)cc(OC)c1OC
% binding [3]: 74%

Nc1cnc(N2CCc3cc(S(=O)(=O)Nc4c(F)cc(Cl)cc4F)cc(N4CCCC4=O)c32)nc1 [TP-020n]
% of control [4]: 100%

COCCN1CCC(c2cc(CN(C)C(=O)c3cccc(Oc4ccccc4)c3)ccn2)CC1
% activity ([5]; at 1 µM): > 95% | % activity ([5]; at 10 µM): > 90%

C=CC(=O)Nc1cc(-n2c(=O)ccc3cnc4ccc(-c5ccc(NS(C)(=O)=O)cc5)cc4c32)ccc1C
% of control [6]: 75%

N#Cc1cccc(-c2c[nH]c3ncnc(N4CCOCC4)c23)c1
% of inhibition [7]: 27%

CN(C)CCOc1ccc(-c2nc(-c3ccncc3)c(-c3ccc4c(c3)CC/C4=N\O)[nH]2)cc1
% of control [8]: 87%

CNC(=O)Nc1ccc(-c2nc(N3CC4CCC(C3)O4)c3cnn(C4CCC5(CC4)OCCO5)c3n2)cc1
% of inhibition [9]: 1% | % of control [10]: 88% | % of control [11]: 85%
